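Growth conditions: 96-well plates. Treatment: test compound, 48 hours, 5 concentrations. Analysis: linear interpolation between bracketing concentrations; unreached endpoints set to highest concentration. TGI: concentration producing complete growth inhibition.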
Assays:
Assay in all cases: NCI tumour cell line growth inhibition, 48 h
[1] = test system: ACHN renal
[2] = test system: DU-145 prostate
[3] = test system: MDA-MB-435
[4] = test system: MDA-N
[5] = test system: MOLT-4 leukemia
[6] = test system: NCI/ADR-RES ovarian
[7] = test system: OVCAR-8 ovarian
[8] = test system: SK-OV-3 ovarian
[9] = test system: TK-10 renal

Row | Structure (SMILES) | TGI [1] | TGI [2] | TGI [3] | TGI [4] | TGI [5] | TGI [6] | TGI [7] | TGI [8] | TGI [9]
1 | COc1cc(C(N)=O)cc(NC(=O)/C=C/c2ccccc2)c1OC | > 100 µM | > 100 µM | > 100 µM | > 100 µM | > 100 µM | > 100 µM | > 100 µM | > 100 µM | > 100 µM
2 | Cc1c(CCCl)c(N=[N+]=[N-])n2c(nc3ccccc32)c1C#N | 2.85 µM | 6.3 µM | 2.73 µM | 3.12 µM | 1.12 µM | 5.53 µM | 5.21 µM | 5.07 µM | 3.02 µM
3 | CN(C)CCNC(=O)c1cccc2nc3cccc(F)c3nc12 | 3.56 µM | 12.9 µM | 2.92 µM | 3.13 µM | 14.2 µM | 3.83 µM | 3.68 µM | – | 6.45 µM
4 | COC(=O)NN=C(c1ccc(Cl)cc1)c1ccc(Cl)cc1 | – | > 100 µM | > 100 µM | > 100 µM | > 100 µM | > 100 µM | > 100 µM | > 100 µM | > 100 µM
5 | CC(C)(C)OC(=O)NC(Cc1cnc[nH]1)C(=O)N1CCCC1C(N)=O (stereo not drawn) | > 100 µM | > 100 µM | > 100 µM | > 100 µM | > 100 µM | > 100 µM | > 100 µM | > 100 µM | > 100 µM
6 | N#CC1CCN2N=C(c3ccccc3)SC12c1ccccc1 (stereo not drawn) | > 100 µM | – | > 100 µM | > 100 µM | 83.4 µM | > 100 µM | > 100 µM | > 100 µM | > 100 µM
7 | O=C1CC(=O)c2c(Cl)sc(Cl)c21 | > 100 µM | > 100 µM | > 100 µM | > 100 µM | > 100 µM | > 100 µM | > 100 µM | > 100 µM | > 100 µM
8 | Cc1cc2c(cc1C)[n+](=O)c(C(=O)N1CCN(c3ccc([N+](=O)[O-])cc3)CC1)c(C)n2[O-] | 12.7 µM | > 100 µM | > 100 µM | > 100 µM | > 100 µM | > 100 µM | > 100 µM | 51.2 µM | 40.4 µM
9 | CN(C)CCCNc1nnc(NCCCN(C)C)c2c(=O)c3sccc3[nH]c12 | > 100 µM | > 100 µM | > 54.7 µM | 14.9 µM | 14.4 µM | > 100 µM | > 100 µM | > 100 µM | > 100 µM
10 | COc1cc2c(cc1OC)C1(c3ccccc3)CN(C2)Cc2cc(OC)c(OC)cc21 | > 100 µM | > 100 µM | 54.8 µM | > 100 µM | 84.7 µM | 74.9 µM | > 100 µM | > 100 µM | > 100 µM
11 | Cc1ccc(CS(=O)(=O)C/N=c2\sc3ccccc3nc2/C=C(\O)c2ccc(Cl)cc2)cc1 | > 10 µM | > 10 µM | > 10 µM | > 10 µM | > 10 µM | > 10 µM | > 10 µM | > 10 µM | > 10 µM
12 | COc1ccc(C(C2C(=O)N(C)C(=O)N(C)C2=O)C(F)(F)C(=O)N(C)C)cc1 (stereo not drawn) | > 100 µM | > 100 µM | > 100 µM | – | – | > 100 µM | > 100 µM | > 100 µM | > 100 µM
13 | Cc1ccc2c(=O)c(-c3nnc(N)s3)c[nH]c2n1 | > 100 µM | > 100 µM | > 100 µM | > 100 µM | > 100 µM | > 100 µM | > 100 µM | – | > 100 µM
14 | Cc1ccc2c(c1)[nH]c(=S)n2C=C1C(=O)CC(C)(C)CC1=O | > 100 µM | > 100 µM | > 100 µM | > 100 µM | > 100 µM | > 100 µM | > 100 µM | > 100 µM | > 100 µM
15 | Cc1ccc(S(=O)(=O)Oc2cc(S(=O)(=O)O)cc3cc(S(=O)(=O)O)cc(N)c23)cc1 | > 100 µM | > 100 µM | > 100 µM | > 100 µM | – | > 100 µM | > 100 µM | > 100 µM | > 100 µM
16 | CC1C/C(=N\N(C)C)C(C#N)(C#N)C1(C#N)C#N (stereo not drawn) | 23.1 µM | 34 µM | 37.4 µM | 33 µM | 6.9 µM | 75.8 µM | 45 µM | > 67.3 µM | 27.6 µM
17 | COc1ccc(N[C@H](CS(=O)c2ccc(C)cc2)C(F)(F)C(F)(F)F)cc1 (stereo partly drawn) | > 100 µM | > 100 µM | > 100 µM | > 100 µM | > 100 µM | > 100 µM | > 100 µM | > 100 µM | > 100 µM
18 | COC(=O)C(Cc1ccccc1I)C1=CCC2(CC1)OCCO2 (stereo not drawn) | > 100 µM | > 100 µM | 44.8 µM | 67.4 µM | 56.8 µM | 55.8 µM | > 100 µM | > 100 µM | > 100 µM
19 | O=C(OCC12CC3CC(CC(C3)C1)C2)c1ccc(NCc2cc(O)ccc2O)cc1 | 7.04 µM | 18.7 µM | 7.06 µM | 16.7 µM | – | 8.97 µM | 7.28 µM | 20.4 µM | 4.83 µM
20 | CCOC(=O)c1cc(C2CCN(Cc3ccccc3)C2=O)c(C(=O)C(=[N+]=[N-])C(C)=O)[nH]1 (stereo not drawn) | – | > 100 µM | > 100 µM | – | > 100 µM | > 100 µM | > 100 µM | > 100 µM | –
21 | COc1ccc2c(c1)nc1n2C(c2c(F)cccc2Cl)SC1 (stereo not drawn) | > 82.9 µM | > 29.3 µM | – | – | > 41.4 µM | 4.81 µM | 51 µM | > 38.1 µM | > 76.8 µM
22 | CC(/C=C/c1ccc([N+](=O)[O-])o1)=N/N1CC(CN2CCOCC2)OC1=O (stereo not drawn) | 34.2 µM | 60.4 µM | 42.2 µM | 35.6 µM | 68.6 µM | 95.9 µM | 35.3 µM | > 100 µM | > 100 µM
23 | CC(C)N=C(NC#N)NS(=O)(=O)c1cnccc1Nc1ccc(Cl)cc1 | > 100 µM | > 100 µM | > 100 µM | > 100 µM | > 100 µM | > 100 µM | > 100 µM | > 100 µM | > 100 µM
24 | CCn1c(=O)ccc2ccc(N(CCO)CCO)nc21 | > 100 µM | > 100 µM | > 100 µM | > 100 µM | > 100 µM | > 100 µM | > 100 µM | > 100 µM | > 100 µM
